# Laboratory results published in ChEMBL document CHEMBL5518193, “Discovery of N-alkyl-N-benzyl thiazoles as novel TRPC antagonists for the treatment of glioblastoma multiforme” (Eur J Med Chem, 2024).
# Calls of active or inactive are those of the source. The rule behind the calls is not given here.
# Biological target: T1, Short transient receptor potential channel 6 (Mus musculus) (UniProt Q61143)
# T1 sequence (whole entry): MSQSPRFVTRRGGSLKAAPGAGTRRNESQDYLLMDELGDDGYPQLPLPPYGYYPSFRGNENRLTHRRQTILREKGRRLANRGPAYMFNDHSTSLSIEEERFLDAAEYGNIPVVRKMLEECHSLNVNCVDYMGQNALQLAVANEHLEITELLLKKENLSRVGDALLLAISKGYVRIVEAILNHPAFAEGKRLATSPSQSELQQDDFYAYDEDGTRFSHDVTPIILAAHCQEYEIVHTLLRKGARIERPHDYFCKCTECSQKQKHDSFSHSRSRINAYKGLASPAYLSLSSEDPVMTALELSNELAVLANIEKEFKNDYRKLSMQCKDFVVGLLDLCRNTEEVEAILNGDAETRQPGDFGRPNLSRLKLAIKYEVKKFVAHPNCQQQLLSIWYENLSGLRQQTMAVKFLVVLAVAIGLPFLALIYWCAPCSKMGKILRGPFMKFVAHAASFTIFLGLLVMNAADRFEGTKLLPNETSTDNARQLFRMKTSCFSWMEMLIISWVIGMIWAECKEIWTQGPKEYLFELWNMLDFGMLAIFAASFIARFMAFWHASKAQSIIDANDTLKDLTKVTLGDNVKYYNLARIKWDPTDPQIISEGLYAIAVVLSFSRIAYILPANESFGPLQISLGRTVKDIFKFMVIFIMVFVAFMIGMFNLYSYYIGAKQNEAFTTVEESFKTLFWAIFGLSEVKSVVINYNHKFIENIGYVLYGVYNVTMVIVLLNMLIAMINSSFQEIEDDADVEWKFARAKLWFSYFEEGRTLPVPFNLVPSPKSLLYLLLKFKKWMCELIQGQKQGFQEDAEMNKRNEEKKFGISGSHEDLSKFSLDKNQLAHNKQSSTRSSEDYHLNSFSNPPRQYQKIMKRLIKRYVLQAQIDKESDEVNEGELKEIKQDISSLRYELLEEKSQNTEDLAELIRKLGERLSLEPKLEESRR
# Assay: Antagonist activity at mouse TRPC6 stably expressed in HEK293 cells assessed as inhibition of calcium influx at 10 uM by calcium fluorescence assay relative to control
# Type: cell-based
# Conditions: not given
row,inhibition,Structure (SMILES)
1,26.1%,CCOC(=O)c1csc(N(CCN)Cc2ccc(OC(F)F)cc2)n1
2,18.5%,NCCN(Cc1cccc(C(F)(F)F)c1)c1nc(C(=O)Nc2ncc[nH]2)cs1
3,19.3%,CCOC(=O)c1csc(NCCN)n1
4,14.7%,CCOC(=O)c1csc(N(CCN)Cc2cccc(F)c2F)n1
5,30.3%,CCOC(=O)c1csc(N(CCNC(=O)OC(C)(C)C)C(=O)c2ccc([N+](=O)[O-])cc2)n1
6,28.3%,CCOC(=O)c1csc(N(CCN)Cc2ccc([N+](=O)[O-])cc2)n1
7,22.1%,CCOC(=O)c1csc(N(CCN)Cc2cccc([N+](=O)[O-])c2)n1
8,18.7%,CCOC(=O)c1csc(N(CCNC(=O)OC(C)(C)C)C(=O)c2ccc(C(F)(F)F)cc2)n1
9,30.5%,CCOC(=O)c1csc(N(CCN)Cc2ccccc2)n1
10,23%,CCOC(=O)c1csc(N(CCN)C(=O)c2ccc([N+](=O)[O-])cc2)n1
11,10.8%,NCCN(Cc1cccc(C(F)(F)F)c1)c1nc(C(=O)Nc2ccc(O)cc2)cs1
12,32.4%,CCOC(=O)c1csc(N(CCNS(C)(=O)=O)Cc2ccc3ccccc3c2)n1
13,35.6%,NCCN(Cc1ccc2ccccc2c1)c1nc(C(=O)NC23CC4CC(CC(C4)C2)C3)cs1
14,29.2%,CCOC(=O)c1csc(N(CCN)Cc2c(F)c(F)c(F)c(F)c2F)n1
15,29%,NCCN(Cc1ccc2ccccc2c1)c1nc(C(=O)O)cs1
16,0.8%,CCOC(=O)c1csc(N(CCNS(N)(=O)=O)Cc2ccc3ccccc3c2)n1

# Same assay, conditions: filed as antagonist
row,inhibition,Structure (SMILES)
1,97.9%,CCOC(=O)c1csc(N(CCN)Cc2ccc3ccccc3c2)n1
2,81.9%,NCCN(Cc1cccc(C(F)(F)F)c1)c1nc(C(=O)NCCc2ccccc2)cs1
3,50.6%,CCN(CC)CCNC(=O)c1csc(N(CCN)Cc2cccc(C(F)(F)F)c2)n1
4,59.5%,CCOC(=O)c1csc(N(CCN)Cc2cc(F)ccc2Br)n1
5,92.2%,CCOC(=O)c1csc(N(CCN)Cc2cccc(C(F)(F)F)c2)n1
6,56.8%,CCOC(=O)c1csc(N(CCN)Cc2ccc3cc(Br)ccc3c2)n1
7,84.6%,CCOC(=O)c1csc(N(CCN)Cc2ccc(C(F)(F)F)cc2)n1
8,56.6%,CCOC(=O)c1csc(N(CCN)Cc2ccc3ccccc3n2)n1
9,84.8%,COc1cccc2sc(N(CCN(C)C)C(=O)c3ccc4c(c3)CCCC4)nc12
10,77.6%,CCOC(=O)c1csc(N(CCN)Cc2cccc3ccccc23)n1
11,53.3%,CCN(CC)CCNC(=O)c1csc(N(CCN)Cc2ccc3ccccc3c2)n1
12,44.2%,CCOC(=O)c1csc(N(CCN)C(=O)c2ccc(C(F)(F)F)cc2)n1
13,40.9%,CCOC(=O)c1csc(N(CCN)Cc2cccc(OC(F)F)c2)n1

# Biological target: T2, Short transient receptor potential channel 6 (Homo sapiens, UniProt Q9Y210)
# T2 sequence (Q9Y210 whole entry): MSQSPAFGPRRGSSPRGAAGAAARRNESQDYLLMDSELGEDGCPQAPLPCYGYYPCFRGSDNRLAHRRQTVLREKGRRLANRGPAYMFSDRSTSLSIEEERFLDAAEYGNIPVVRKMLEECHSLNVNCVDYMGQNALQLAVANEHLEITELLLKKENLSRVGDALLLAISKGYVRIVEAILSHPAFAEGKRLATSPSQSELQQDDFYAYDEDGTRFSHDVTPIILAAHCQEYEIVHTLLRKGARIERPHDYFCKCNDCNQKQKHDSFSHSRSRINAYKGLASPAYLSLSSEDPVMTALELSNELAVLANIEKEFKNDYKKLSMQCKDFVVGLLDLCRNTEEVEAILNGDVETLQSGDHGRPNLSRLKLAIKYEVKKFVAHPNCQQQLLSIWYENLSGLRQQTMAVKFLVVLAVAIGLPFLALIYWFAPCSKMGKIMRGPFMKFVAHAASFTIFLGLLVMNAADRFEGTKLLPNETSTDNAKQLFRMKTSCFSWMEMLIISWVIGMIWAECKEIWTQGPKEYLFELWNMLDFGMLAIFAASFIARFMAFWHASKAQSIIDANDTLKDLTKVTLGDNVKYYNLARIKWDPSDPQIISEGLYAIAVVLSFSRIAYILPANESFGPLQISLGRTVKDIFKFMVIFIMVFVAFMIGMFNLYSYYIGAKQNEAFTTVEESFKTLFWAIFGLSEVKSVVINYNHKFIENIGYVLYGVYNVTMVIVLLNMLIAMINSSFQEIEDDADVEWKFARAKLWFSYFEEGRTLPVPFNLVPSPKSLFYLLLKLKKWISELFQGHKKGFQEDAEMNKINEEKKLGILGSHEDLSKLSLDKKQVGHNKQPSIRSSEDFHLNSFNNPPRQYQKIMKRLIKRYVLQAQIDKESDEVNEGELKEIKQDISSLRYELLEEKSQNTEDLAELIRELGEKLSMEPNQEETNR
# Assay: Antagonist activity at TRPC6 (unknown origin) assessed as inhibition of channel activity
# Conditions: not given
row,IC50,Structure (SMILES)
1,13 nM,CC(C)(C)c1ccc(Oc2ccc(C(=O)N3CCC(c4ccc(N)nn4)CC3)cc2)cc1
2,5.8 nM,C=C[C@@](C)(O)CC[C@H]1C(=C)C[C@H](OC(=O)NC)[C@H]2C(C)(C)CCC[C@]12C
3,1000 nM,CCOC(=O)N1CCC(C)(C2C=C(O)N3N=C(C)C(c4ccc(F)cc4)C3=N2)CC1 (stereo not drawn)
4,21 nM,Cc1sc(Nc2ccc(Cl)cc2F)nc1C(=O)N1CCC[C@H](C)[C@@H]1C
5,10 nM,CC1CC(C)CN(C(=O)c2csc(Nc3ccc4c(c3)OCO4)n2)C1 (stereo not drawn)
6,0.22 nM,N#Cc1ccc(O[C@@H]2c3ccccc3C[C@@H]2N2CCC[C@@H](N)C2)cc1
7,4200 nM,COc1cccc2sc(N(CCN(C)C)C(=O)c3ccc4c(c3)CCCC4)nc12

# Biological target: T3, Short transient receptor potential channel 3 (Homo sapiens, UniProt Q13507)
# T3 sequence (Q13507 whole entry): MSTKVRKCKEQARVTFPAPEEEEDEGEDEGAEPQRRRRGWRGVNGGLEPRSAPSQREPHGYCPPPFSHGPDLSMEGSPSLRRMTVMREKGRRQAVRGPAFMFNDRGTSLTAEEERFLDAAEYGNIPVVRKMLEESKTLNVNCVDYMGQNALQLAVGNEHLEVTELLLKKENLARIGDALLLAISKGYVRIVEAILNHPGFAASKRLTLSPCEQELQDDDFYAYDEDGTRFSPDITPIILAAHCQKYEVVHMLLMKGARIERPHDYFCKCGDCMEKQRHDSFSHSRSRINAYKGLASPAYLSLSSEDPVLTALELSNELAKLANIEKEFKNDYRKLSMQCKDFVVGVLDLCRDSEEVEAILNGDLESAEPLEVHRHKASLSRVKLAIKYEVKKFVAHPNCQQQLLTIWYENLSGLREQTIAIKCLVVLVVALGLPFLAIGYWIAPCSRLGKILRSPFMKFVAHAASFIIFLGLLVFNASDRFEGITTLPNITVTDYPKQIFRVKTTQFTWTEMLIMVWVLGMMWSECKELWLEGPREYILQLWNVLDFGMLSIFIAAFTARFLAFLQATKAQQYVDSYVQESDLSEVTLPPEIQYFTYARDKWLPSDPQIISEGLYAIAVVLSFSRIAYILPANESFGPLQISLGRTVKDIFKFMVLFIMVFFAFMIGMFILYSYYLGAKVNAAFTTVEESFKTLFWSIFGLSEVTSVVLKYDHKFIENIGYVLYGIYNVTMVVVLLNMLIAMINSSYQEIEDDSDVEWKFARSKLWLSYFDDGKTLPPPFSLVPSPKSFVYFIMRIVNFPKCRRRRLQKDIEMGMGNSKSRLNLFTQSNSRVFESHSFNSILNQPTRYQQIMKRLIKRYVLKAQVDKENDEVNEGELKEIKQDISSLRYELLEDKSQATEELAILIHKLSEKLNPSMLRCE
# Assay: Antagonist activity at TRPC3 (unknown origin) assessed as inhibition of channel activity
# Conditions: not given
row,IC50,Structure (SMILES)
1,5 nM,CC1CCCN(C(=O)c2nc(Nc3cc4c(cc3F)OCO4)sc2Cl)C1C (stereo not drawn)
2,840 nM,C=C[C@@](C)(O)CC[C@H]1C(=C)C[C@H](OC(=O)NC)[C@H]2C(C)(C)CCC[C@]12C
3,3 nM,Cc1sc(Nc2ccc(Cl)cc2F)nc1C(=O)N1CCC[C@H](C)[C@@H]1C
4,10 nM,CC1CC(C)CN(C(=O)c2csc(Nc3ccc4c(c3)OCO4)n2)C1 (stereo not drawn)

# Test system: U-87 MG
# Assay: Antitumor activity against human U87 cells xenografted in BALB/c nude mouse assessed as tumor growth inhibition at 50 mg/kg/day administered as liposome encapsulated form for 15 days and measured every 3 days by vernier caliper
# Type: functional, U-87MG ATCC
# Conditions: 360 h, time 15 day, read-out: TGI
row,Structure (SMILES),inhibition in vivo at 50 mg/kg/day
1,Cn1nnc2c(C(N)=O)ncn2c1=O [TEMOZOLOMIDE],36.5%

# Biological target: T1, Short transient receptor potential channel 6 (Mus musculus)
# Assay: Antagonist activity at mouse TRPC6 stably expressed in HEK293 cells assessed as inhibition of calcium influx at 10 uM by calcium fluorescence assay
# Type: cell-based
# Conditions: not given
row,inhibition,Structure (SMILES)
1,inactive,CC(=O)NCCN(Cc1ccc2ccccc2c1)c1nc(C(=O)Nc2ccc(O)cc2)cs1

# Biological target: T4, Short transient receptor potential channel 6 (Homo sapiens) (UniProt Q9Y210)
# T4 sequence (whole entry): T2 sequence (Q9Y210 whole entry)
# Assay: Antagonist activity at human TRPC6 assessed as inhibition of channel activity at 10 uM relative to control
# Conditions: filed as antagonist
row,inhibition,Structure (SMILES)
1,84.4%,COc1cccc2sc(N(CCN(C)C)C(=O)c3ccc4c(c3)CCCC4)nc12
